Source: US20060069132A1, “Azolecarboxamide herbicides” (priority 2004, published 2006)

Assays:
[1] = system: corn; test: Test B pre-/postemergence herbicide test; type: in vivo, Zea mays; details: for Corn plant response rating: postemergence, visual rating, scale 0 (no effect) to 100 (complete control)
Procedure, shortened: (§1)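 Formulation: non-phytotoxic solvent mix with surfactant. Timing: preemergence on seed and postemergence on 2–18 cm plants, applied concurrently. Readout after 13–15 d greenhouse: visual 0–100 control rating against controls.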

[2] = system: barnyardgrass; test: Test A pre-/postemergence herbicide test; type: in vivo, Echinochloa crus-galli
Procedure, shortened: (§2)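 Seeds sown in sandy loam received a preemergence directed soil spray of compound in non-phytotoxic solvent with surfactant; postemergence plants (2–10 cm, one- to two-leaf stage) were sprayed to runoff at the same time. After ~10 days in greenhouse, injury was rated visually versus untreated controls (0 = no effect, 100 = complete control).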

[3] = system: velvetleaf; test: Test B pre-/postemergence herbicide test; type: in vivo, Abutilon theophrasti; details: for Velvetleaf plant response rating: postemergence, visual rating, scale 0 (no effect) to 100 (complete control)
Procedure, shortened: as §1

[4] = system: giant foxtail; test: Test B pre-/postemergence herbicide test; type: in vivo, Setaria faberi; details: for Foxtail, Giant plant response rating: postemergence, visual rating, scale 0 (no effect) to 100 (complete control)
Procedure, shortened: as §1

[5] = system: morningglory; test: Test A pre-/postemergence herbicide test; type: in vivo, Ipomoea spp.
Procedure, shortened: as §2

[6] = system: ducksalad; test: Test B flooded paddy test; type: in vivo, Heteranthera limosa; details: 1000 g ai/ha, visual rating, scale 0 to 100 (0 no effect, 100 complete control), 13 to 15 days
Procedure, shortened: (§3)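 Scale 0–100: zero equals no visible effect, 100 complete control, judged by eye relative to controls. Timing: 13 to 15 days in greenhouse post-treatment. Growth stage at spraying: two leaves (paddy) or one to four leaves, 2–18 cm (postemergence).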

[7] = system: barnyardgrass; test: Test B pre-/postemergence herbicide test; type: in vivo, Echinochloa crus-galli; details: for Barnyardgrass plant response rating: postemergence, visual rating, scale 0 (no effect) to 100 (complete control)
Procedure, shortened: as §1

[8] = system: large crabgrass; test: Test A pre-/postemergence herbicide test; type: in vivo, Digitaria sanguinalis
Procedure, shortened: as §2

[9] = system: wild oat; test: Test B postemergence herbicide test; type: in vivo, Avena fatua; details: postemergence, visual rating, scale 0 (no effect) to 100 (complete control)
Procedure, shortened: as §3

[10] = system: rice; test: Test B pre-/postemergence herbicide test; type: in vivo, Oryza sativa; details: preemergence
Procedure, shortened: as §1

[11] = system: velvetleaf; test: Test A pre-/postemergence herbicide test; type: in vivo, Abutilon theophrasti
Procedure, shortened: as §2

[12] = system: wheat; test: Test B postemergence herbicide test; type: in vivo, Triticum aestivum; set-up: key to Wheat plant response rating: 0 = no effect, 100 = complete control; details: postemergence, visual rating, scale 0 (no effect) to 100 (complete control)
Procedure, shortened: as §3

[13] = system: pigweed; test: Test B pre-/postemergence herbicide test; type: in vivo, Amaranthus retroflexus; details: for Pigweed plant response rating: postemergence, visual rating, scale 0 (no effect) to 100 (complete control)
Procedure, shortened: as §1

[14] = system: barnyardgrass; test: Test B flooded paddy test; type: in vivo, Echinochloa crus-galli; details: 1000 g ai/ha, visual rating, scale 0 to 100 (0 no effect, 100 complete control), 13 to 15 days
Procedure, shortened: as §3

[15] = system: Surinam grass; test: Test B pre-/postemergence herbicide test; type: in vivo, Urochloa decumbens; details: for Surinam Grass plant response rating: postemergence, visual rating, scale 0 (no effect) to 100 (complete control)
Procedure, shortened: as §1

[16] = system: blackgrass; test: Test B postemergence herbicide test; type: in vivo, Alopecurus myosuroides; details: postemergence, visual rating, scale 0 (no effect) to 100 (complete control)
Procedure, shortened: as §3

[17] = system: lambsquarters; test: Test B pre-/postemergence herbicide test; type: in vivo, Chenopodium album; details: for Lambsquarters plant response rating: postemergence, visual rating, scale 0 (no effect) to 100 (complete control)
Procedure, shortened: as §1

[18] = system: cocklebur; test: Test B pre-/postemergence herbicide test; type: in vivo, Xanthium strumarium; details: for Cocklebur plant response rating: postemergence, visual rating, scale 0 (no effect) to 100 (complete control)
Procedure, shortened: as §1

[19] = system: giant foxtail; test: Test A pre-/postemergence herbicide test; type: in vivo, Setaria faberi
Procedure, shortened: as §2

[20] = system: small flower umbrella sedge; test: Test B flooded paddy test; type: in vivo, Cyperus difformis; details: 1000 g ai/ha, visual rating, scale 0 to 100 (0 no effect, 100 complete control), 13 to 15 days
Procedure, shortened: as §3

[21] = system: morningglory; test: Test B pre-/postemergence herbicide test; type: in vivo, Ipomoea coccinea; details: for Morningglory plant response rating: postemergence, visual rating, scale 0 (no effect) to 100 (complete control)
Procedure, shortened: as §1

[22] = system: large crabgrass; test: Test B pre-/postemergence herbicide test; type: in vivo, Digitaria sanguinalis; details: for Crabgrass, Large plant response rating: postemergence, visual rating, scale 0 (no effect) to 100 (complete control)
Procedure, shortened: as §1

[23] = system: rice; test: Test B flooded paddy test; type: in vivo, Oryza sativa; details: 1000 g ai/ha, visual rating, scale 0 to 100 (0 no effect, 100 complete control), 13 to 15 days
Procedure, shortened: as §3

[24] = system: redroot pigweed; test: Test A pre-/postemergence herbicide test; type: in vivo, Amaranthus retroflexus
Procedure, shortened: as §2

[25] = 125 g ai/ha, 0 = no effect, 100 = complete control, preemergence
[26] = 500 g ai/ha, visual rating 0-100, 0 no effect, 100 complete control, preemergence
[27] = Postemergence, 500 g ai/ha, 0 to 100 scale, 0 no effect, 100 complete control
[28] = Postemergence, 2000 g ai/ha, 0 to 100 scale, 0 no effect, 100 complete control
[29] = Preemergence, 2000 g ai/ha, visual rating, 0 to 100 scale (0 no effect, 100 complete control)
[30] = preemergence, 500 g ai/ha, visual injury, 0 to 100 scale (0 no effect, 100 complete control)

COC(=O)c1cccc(NC(=O)c2sc(C(C)(C)C)nc2C)c1 [Compound 197]
Corn plant response rating (0 to 100 scale) [1, 25]: 0 | Plant response rating, Corn [1, 26]: 0 | Corn plant response rating ([1]; 125 g ai/ha): 10 | Corn plant response rating ([1]; 500 g ai/ha): 20 | Barnyardgrass plant response rating [2, 27]: 10 | Plant response rating, Barnyardgrass [2, 28]: 0 | Barnyardgrass plant response rating [2, 29]: 0 | Barnyardgrass plant response rating [2, 30]: 0 | Velvetleaf plant response rating (0 to 100 scale) [3, 25]: 0 | Plant response rating, Velvetleaf [3, 26]: 0 | Velvetleaf plant response rating ([3]; 125 g ai/ha): 0 | Velvetleaf plant response rating ([3]; 500 g ai/ha): 20 | Foxtail, Giant plant response rating (0 to 100 scale) [4, 25]: 0 | Plant response rating, Foxtail, Giant [4, 26]: 0 | Foxtail, Giant plant response rating ([4]; 125 g ai/ha): 0 | Foxtail, Giant plant response rating ([4]; 500 g ai/ha): 0 | Morningglory plant response rating [5, 27]: 0 | Plant response rating, Morningglory [5, 28]: 0 | Morningglory plant response rating [5, 29]: 5 | Morningglory plant response rating [5, 30]: 0 | Ducksalad plant response rating [6]: 0 | Barnyardgrass plant response rating (0 to 100 scale) [7, 25]: 0 | Plant response rating, Barnyardgrass [7, 26]: 10 | Barnyardgrass plant response rating ([7]; 125 g ai/ha): 0 | Barnyardgrass plant response rating ([7]; 500 g ai/ha): 10 | Crabgrass, Large plant response rating [8, 27]: 5 | Plant response rating, Crabgrass, Large [8, 28]: 10 | Crabgrass, Large plant response rating [8, 29]: 0 | Crabgrass, Large plant response rating [8, 30]: 0 | Oat, Wild plant response rating ([9]; 125 g ai/ha): 10 | Oat, Wild plant response rating ([9]; 500 g ai/ha): 30 | Rice plant response rating (0 to 100 scale) ([10]; 125 g ai/ha, 0 = no effect, 100 = complete control): 0 | Plant response rating, Rice ([10]; 500 g ai/ha, visual rating 0-100, 0 no effect, 100 complete control): 0 | Velvetleaf plant response rating [11, 27]: 5 | Plant response rating, Velvetleaf [11, 28]: 5 | Velvetleaf plant response rating [11, 29]: 10 | Velvetleaf plant response rating [11, 30]: 0 | Wheat plant response rating ([12]; 125 g ai/ha): 0 | Wheat plant response rating ([12]; 500 g ai/ha): 10 | Pigweed plant response rating (0 to 100 scale) [13, 25]: 0 | Plant response rating, Pigweed [13, 26]: 0 | Pigweed plant response rating ([13]; 125 g ai/ha): 0 | Pigweed plant response rating ([13]; 500 g ai/ha): 10 | Barnyardgrass plant response rating [14]: 0 | Surinam Grass plant response rating (0 to 100 scale) [15, 25]: 0 | Plant response rating, Surinam Grass [15, 26]: 20 | Surinam Grass plant response rating ([15]; 125 g ai/ha): 10 | Surinam Grass plant response rating ([15]; 500 g ai/ha): 20 | Blackgrass plant response rating ([16]; 125 g ai/ha): 0 | Blackgrass plant response rating ([16]; 500 g ai/ha): 0 | Lambsquarters plant response rating (0 to 100 scale) [17, 25]: 0 | Plant response rating, Lambsquarters [17, 26]: 0 | Lambsquarters plant response rating ([17]; 125 g ai/ha): 0 | Lambsquarters plant response rating ([17]; 500 g ai/ha): 0 | Cocklebur plant response rating (0 to 100 scale) [18, 25]: 0 | Plant response rating, Cocklebur [18, 26]: 0 | Cocklebur plant response rating ([18]; 125 g ai/ha): 0 | Cocklebur plant response rating ([18]; 500 g ai/ha): 10 | Foxtail, Giant plant response rating [19, 27]: 0 | Plant response rating, Foxtail, Giant [19, 28]: 5 | Foxtail, Giant plant response rating [19, 29]: 0 | Foxtail, Giant plant response rating [19, 30]: 0 | Sedge, Umbrella plant response rating [20]: 0 | Morningglory plant response rating (0 to 100 scale) [21, 25]: 0 | Plant response rating, Morningglory [21, 26]: 0 | Morningglory plant response rating ([21]; 125 g ai/ha): 0 | Morningglory plant response rating ([21]; 500 g ai/ha): 0 | Crabgrass, Large plant response rating (0 to 100 scale) [22, 25]: 0 | Plant response rating, Crabgrass, Large [22, 26]: 0 | Crabgrass, Large plant response rating ([22]; 125 g ai/ha): 0 | Crabgrass, Large plant response rating ([22]; 500 g ai/ha): 0 | Rice plant response rating [23]: 0 | Pigweed plant response rating [24, 27]: 0 | Plant response rating, Pigweed [24, 28]: 5 | Pigweed plant response rating [24, 29]: 0 | Pigweed plant response rating [24, 30]: 0
